In PMC9516332 (Frontiers in Oncology, 2022) one finds inhibition data, which are given here for 9 compounds.

SMILES strings stand for the structures.

What all share (test): Kinase panel profiling at 1 µmol/L (MSA or IMAP), percentage inhibition
Type in all cases: biochemical

Assay [1] has as its target panel of 255 wild-type kinases (Homo sapiens, UniProt Q8TDX7). The conditions noted are these: NEK7; 1 µmol/L single concentration; read-out: %-inhibition, NEK7.
The target in assay [2] is T1, panel of 255 wild-type kinases (Homo sapiens, UniProt P29323).
T1 sequence (P29323 19-1055): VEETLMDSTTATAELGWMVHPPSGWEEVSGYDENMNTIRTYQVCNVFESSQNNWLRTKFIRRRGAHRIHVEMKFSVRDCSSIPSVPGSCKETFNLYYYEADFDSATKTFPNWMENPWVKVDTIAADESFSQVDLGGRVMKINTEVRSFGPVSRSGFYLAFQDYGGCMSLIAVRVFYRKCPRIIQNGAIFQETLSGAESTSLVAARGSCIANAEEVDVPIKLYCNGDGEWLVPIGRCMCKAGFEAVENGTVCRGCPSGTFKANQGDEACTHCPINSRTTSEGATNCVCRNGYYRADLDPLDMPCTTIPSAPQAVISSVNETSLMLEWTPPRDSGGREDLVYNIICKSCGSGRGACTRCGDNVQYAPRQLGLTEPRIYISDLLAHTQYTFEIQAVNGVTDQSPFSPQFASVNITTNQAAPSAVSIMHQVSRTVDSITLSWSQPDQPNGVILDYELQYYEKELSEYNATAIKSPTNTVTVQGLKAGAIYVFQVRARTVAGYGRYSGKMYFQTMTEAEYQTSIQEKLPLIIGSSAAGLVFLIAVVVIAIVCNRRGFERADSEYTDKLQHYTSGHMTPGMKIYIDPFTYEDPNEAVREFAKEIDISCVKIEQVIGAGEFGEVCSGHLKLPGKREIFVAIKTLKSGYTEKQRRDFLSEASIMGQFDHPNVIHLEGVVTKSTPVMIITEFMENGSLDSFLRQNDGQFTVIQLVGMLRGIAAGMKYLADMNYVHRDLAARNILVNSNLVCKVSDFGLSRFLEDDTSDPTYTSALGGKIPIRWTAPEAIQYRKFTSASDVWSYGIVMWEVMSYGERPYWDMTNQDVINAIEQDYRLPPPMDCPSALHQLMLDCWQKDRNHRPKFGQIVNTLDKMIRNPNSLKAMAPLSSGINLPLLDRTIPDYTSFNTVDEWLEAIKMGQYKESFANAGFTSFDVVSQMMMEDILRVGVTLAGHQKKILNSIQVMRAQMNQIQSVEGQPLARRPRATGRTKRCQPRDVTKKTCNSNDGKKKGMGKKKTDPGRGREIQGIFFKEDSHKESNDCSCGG
The conditions noted are these: kinase EPHB2; 1 µmol/L single concentration; read-out: %-inhibition at 1 µmol/L, EPHB2.

In assay [3] the target is T2, panel of 255 wild-type kinases (Homo sapiens, UniProt P51955).
T2 sequence (P51955 1-445): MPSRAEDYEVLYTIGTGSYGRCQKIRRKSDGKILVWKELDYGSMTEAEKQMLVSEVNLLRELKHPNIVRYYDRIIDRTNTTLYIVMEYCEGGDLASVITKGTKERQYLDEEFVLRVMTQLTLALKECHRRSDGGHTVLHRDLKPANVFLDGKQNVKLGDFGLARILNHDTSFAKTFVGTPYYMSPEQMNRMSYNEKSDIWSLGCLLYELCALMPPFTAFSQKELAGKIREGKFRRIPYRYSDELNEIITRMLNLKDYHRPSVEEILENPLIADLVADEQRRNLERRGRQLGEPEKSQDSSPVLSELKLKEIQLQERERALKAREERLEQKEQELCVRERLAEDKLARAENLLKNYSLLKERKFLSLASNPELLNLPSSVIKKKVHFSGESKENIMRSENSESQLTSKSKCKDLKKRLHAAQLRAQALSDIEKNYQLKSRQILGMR
To be noted: NEK2; 1 µmol/L single concentration; read-out: %-inhibition, NEK2.

The target in assay [4] is panel of 255 wild-type kinases (Homo sapiens, UniProt Q13131). The conditions noted are these: AMPKα1/β1/γ1 kinase assay; 1 µmol/L single concentration; read-out: %-inhibition AMPKα1/β1/γ1.
The target of assay [5] is T3, panel of 255 wild-type kinases (Homo sapiens, UniProt P42681).
T3 sequence (P42681 1-527): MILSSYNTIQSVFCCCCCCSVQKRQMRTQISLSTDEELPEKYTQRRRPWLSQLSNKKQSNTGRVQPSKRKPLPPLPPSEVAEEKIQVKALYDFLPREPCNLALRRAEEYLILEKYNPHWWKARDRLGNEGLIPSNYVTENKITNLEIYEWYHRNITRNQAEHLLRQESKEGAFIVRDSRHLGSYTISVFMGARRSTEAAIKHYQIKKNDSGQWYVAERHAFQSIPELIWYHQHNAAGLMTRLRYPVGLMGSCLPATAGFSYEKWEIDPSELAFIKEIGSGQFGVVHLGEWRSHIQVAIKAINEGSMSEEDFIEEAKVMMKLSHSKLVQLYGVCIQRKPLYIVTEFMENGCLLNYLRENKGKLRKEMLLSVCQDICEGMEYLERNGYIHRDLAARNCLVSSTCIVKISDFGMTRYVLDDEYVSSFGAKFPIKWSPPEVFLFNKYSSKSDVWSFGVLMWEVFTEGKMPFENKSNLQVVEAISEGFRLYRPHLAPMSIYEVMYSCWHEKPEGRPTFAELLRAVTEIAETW
The conditions noted are these: kinase TXK; 1 µmol/L single concentration; read-out: %-inhibition at 1 µmol/L, TXK.

Assay [6] concerns the target T4, panel of 255 wild-type kinases (Homo sapiens, UniProt Q08881).
T4 sequence (Q08881 1-620): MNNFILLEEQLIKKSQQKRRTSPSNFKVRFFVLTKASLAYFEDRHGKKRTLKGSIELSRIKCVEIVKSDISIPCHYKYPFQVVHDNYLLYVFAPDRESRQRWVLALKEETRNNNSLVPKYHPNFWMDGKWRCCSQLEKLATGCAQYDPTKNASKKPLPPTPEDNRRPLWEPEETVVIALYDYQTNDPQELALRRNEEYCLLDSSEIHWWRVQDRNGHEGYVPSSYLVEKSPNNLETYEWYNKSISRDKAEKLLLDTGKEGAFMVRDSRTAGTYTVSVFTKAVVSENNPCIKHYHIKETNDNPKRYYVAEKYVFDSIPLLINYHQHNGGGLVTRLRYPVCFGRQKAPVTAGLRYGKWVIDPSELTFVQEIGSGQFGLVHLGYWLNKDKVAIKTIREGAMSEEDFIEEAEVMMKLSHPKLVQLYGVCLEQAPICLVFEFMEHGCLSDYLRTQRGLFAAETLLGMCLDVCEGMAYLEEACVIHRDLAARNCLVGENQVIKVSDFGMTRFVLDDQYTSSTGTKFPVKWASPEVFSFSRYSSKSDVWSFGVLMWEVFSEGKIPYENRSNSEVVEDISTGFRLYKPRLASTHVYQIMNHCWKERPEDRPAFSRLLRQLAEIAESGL
The conditions noted are these: kinase ITK; 1 µmol/L single concentration; read-out: %-inhibition at 1 µmol/L, ITK.

`CCN1C(=O)N(c2c(F)c(OC)cc(OC)c2F)Cc2cnc3[nH]c(CN4CCOCC4)cc3c21` [pemigatinib]: the inhibition at 1 µM is 3% in assay [1]; -0.799% in assay [2]; -2% in assay [3]; -6.52% in assay [4]; -0.753% in assay [5]; 2% in assay [6].

With `CN1CCN(c2ccc(C(=O)Nc3n[nH]c4ccc(Cc5cc(F)cc(F)c5)cc34)c(NC3CCOCC3)c2)CC1` [entrectinib], the inhibition at 1 µM in assay [1] was -1.81%; in assay [2], 64%; in assay [3], 11%; in assay [4], 55%; in assay [5], 98%; in assay [6] it was 99%.

As to `CO[C@]1(C(=O)N[C@@H](C)c2ccc(-n3cc(F)cn3)nc2)CC[C@H](c2nc(C)cc(Nc3cc(C)[nH]n3)n2)CC1` [pralsetinib], the inhibition at 1 µM is -3% in assay [1]; 35% in assay [2]; 7.4% in assay [3]; 46% in assay [4]; 41% in assay [5]; 59% in assay [6].

Take `C[C@H]1Oc2cc(cnc2N)-c2c(nn(C)c2C#N)CN(C)C(=O)c2ccc(F)cc21` [lorlatinib]: the inhibition at 1 µM in assay [1] was 1.44%; in assay [2], 14%; in assay [3], 10%; in assay [4] it was -3.58%; in assay [5], 3.52%; in assay [6] it was 14%.

As for `CCn1c(=O)c(-c2cc(NC(=O)Nc3ccccc3)c(F)cc2Br)cc2cnc(NC)cc21` [ripretinib], the inhibition at 1 µM in assay [1] is -7%; in assay [2], 75%; in assay [3], -0.18%; in assay [4], -10%; in assay [5], 11%; in assay [6], 1.24%.

Consider `Cc1nc(NC(=O)N2CCC[C@H]2C(N)=O)sc1-c1ccnc(C(C)(C)C(F)(F)F)c1` [alpelisib], for which the inhibition at 1 µM in assay [1] is 0.399%; in assay [2] it was 1.07%; in assay [3] it was 7.4%; in assay [4] it was -5%; in assay [5], -4%; in assay [6], 9%.

Consider `FC(F)(F)c1ccc(CNc2ccc(Cc3c[nH]c4ncc(Cl)cc34)cn2)cn1` [pexidartinib], for which the inhibition at 1 µM is -2.52% in assay [1]; 8% in assay [2]; -0.918% in assay [3]; -11% in assay [4]; 6.34% in assay [5]; 9% in assay [6].

In the case of `CCc1nc(C(N)=O)c(Nc2ccc(N3CCC(N4CCN(C)CC4)CC3)c(OC)c2)nc1NC1CCOCC1` [gilteritinib], the inhibition at 1 µM was -2% in assay [1]; 75% in assay [2]; 38% in assay [3]; 0.625% in assay [4]; 79% in assay [5]; 92% in assay [6].

Turning to `O=C(Nc1cnn2ccc(N3CCC[C@@H]3c3cc(F)ccc3F)nc12)N1CC[C@H](O)C1` [larotrectinib], the inhibition at 1 µM in assay [1] was 0.263%; in assay [2], -0.574%; in assay [3], -0.367%; in assay [4], -5.64%; in assay [5] it was 16%; in assay [6], 13%.
